Assay [1] relates to OT-I CD8+ T cells. Briefly: In vivo cross-presentation assay with free 6H8 antibody administered concurrently. More on the design: species or system mouse. The following applies: antigen 0.3 μg with free 6H8 antibody 30 μg, 72 hours. As for the experimental part: (1) CFSE-labeled CD8^+ T cells of an OT-I/CD45.1 mouse were transferred to recipient mice from the tail vein, with 6H8-OVA [or 6H8 (F(ab′)2)—OVA, or OVA, or IgG2a-OVA] (0.3 μg) and the free 6H8 antibody [or 6H8 (F(ab′)2) or IgG2a] (30 μg) administered from the tail vein concurrently. (2) 72 hours later, the spleen was recovered from each mouse, and 2×10^6 splenocytes were stained with the PE-CD45.1 antibody in a 96-well round-bottomed plate for 30 minutes (while cooling on ice). (3) The CFSE intensity of CD45.1-positive cells (OT-I CD8^+ T cells) was determined using FACS Canto (BD).

The test system of assay [2] is OT-I CD8+ T cells. Briefly: In vitro cross-presentation assay with BMDC of normal and FcRγ KO mouse. The following applies: BMDC pulsed 3 hours, co-culture with OT-I CD8+ T cells, IFNγ ELISA. The format is cell-based. As for the experimental part: (1) A bone marrow-derived dendritic cells (BMDCs) were established from a normal mouse and an FcRγ KO mouse (supplied by Professor Akira Shibuya, Immunology, Life System Medical Sciences, Majors of Medical Sciences, Graduate School of Comprehensive Human Sciences, University of Tsukuba) as described below. Bone marrow was recovered from a mouse femur and tibia, and 1×10^6 cells each were cultured in a 24-well plate using 2 ml/well of a complete RPMI containing 20 ng/ml recombinant mouse GM-CSF (R&D). Half of the medium was exchanged for a fresh medium on day 3 of cultivation, and the cells obtained on day 5 of cultivation were used as the BMDC. (2) BMDCs at Day 5 induced in a GM-CSF-dependent manner was stained with biotin-6H8 (2.5 μg/ml) and streptavidin-APC (0.2 μg/ml), and its fluorescence was determined using FACS Canto (BD).
(1) A pellet of 1×10^6 BMDC cells at Day 5 induced in a GM-CSF-dependent manner were prepared in a 15-ml tube. After adding 400 μl of an antigen (6H8-OVA, OVA, or OVA257-264) thereto, the tube was incubated with 5% CO2 at 37° C. for 3 hours. The cells were fixed in 0.5% para-formaldehyde, after which the cells were washed with 0.1 M glycine and then with RPMI; thereafter, the density was adjusted to 1×10^5 cells/ml. (2) Concurrently, OT-I CD8^+ T cells were purified and the density was adjusted to 1×10^5 cells/ml. […]
For orientation: An ELISA detects its analyte on a solid surface through an enzyme-linked reagent.

The test system of another assay is DC2.4 cells. Briefly: Influence of HSP90 inhibitors on expression of cell surface HSP90 (FACS with 6H8). The format is cell-based. The following applies: DC2.4, 37° C., 3 hours; OVA 1 mg/ml, radicicol 25 μM, novobiocin 400 μM. On the procedure:
DC2.4 cells were incubated in the presence of OVA (in FIG. 4A, i; 1 mg/ml), radicicola (in FIG. 4A, ii; 25 μM) or novobiocin (in FIG. 4A, iii; 400 μM) with 5% CO2 at 37° C. for 3 hours. Next, the cells were cooled on ice. To detect cell surface HSP90, the cells were stained with the 6H8 antibody and then analyzed by FACS.

The test system of assay [3] is DC2.4 cells and mouse GM-CSF-dependent BMDC. Briefly: Influence of cytokines on expression of cell surface HSP90 (FACS with 6H8). The assay is classed as cell-based. The following applies: for MFI of cell surface HSP90 after cytokine treatment versus negative control: BMDC, cytokines 100 ng/ml or 10 ng/ml; for expression of cell surface HSP90 after IFN treatment: DC2.4 and mouse GM-CSF-dependent BMDC, 24 hours, IFNα 500 U/ml, IFNβ 500 U/ml, IFNγ 50 ng/ml. As for the experimental part:
In view of the possibility that cytokines are variation factors for the expression of cell surface HSP90, the influences of various cytokines on the expression of cell surface HSP90 were examined as described below.
The solid bars indicate the MFI for BMDC incubated in the presence of high concentrations of IFNs (as in FIG. 5B) or other cytokines (100 ng/ml); the grey bars indicate the MFI for BMDC incubated in the presence of low concentrations of IFNs (as in FIG. 5B) or other cytokines (10 ng/ml). The open bars indicate the MFI for BMDC incubated in the absence of the cytokines as negative controls.

In the case of “ovalbumin [ovalbumin used as a model antigen]”, the “enhancing effect by the 6H8 antibody on proliferation reaction of OT-I CD8+ T cells with this antigen” value in the assay with OT-I CD8+ T cells [1] is given as “not noted”. In addition, in the assay with OT-I CD8+ T cells [2], the “cross-presentation potential of FcRγ KO mouse-derived dendritic cells compared with normal mouse-derived dendritic cells” value was “equivalent”. Also, the “influence on expression level of surface HSP90” value (“influence on expression level” for short) with DC2.4 cells is “do not influence”. IL-6: cytokine: in assay [3], the “MFI of cell surface HSP90 after cytokine treatment versus negative control” value is “no significant difference from the negative control”.

For the compound IL-18: cytokine, in assay [3], the “MFI of cell surface HSP90 after cytokine treatment versus negative control” value is listed as “no significant difference from the negative control”.

For IL-5: cytokine, the “MFI of cell surface HSP90 after cytokine treatment versus negative control” value in assay [3] is “no significant difference from the negative control”. As for IFNα, in assay [3], the “expression of cell surface HSP90 after IFN treatment” value is “increased”.

With `CO[C@@H]1[C@@H](OC(N)=O)[C@@H](O)[C@H](Oc2ccc3c(O)c(NC(=O)c4ccc(O)c(CC=C(C)C)c4)c(=O)oc3c2C)OC1(C)C` [novobiocin], the “influence on expression level” value in the assay with DC2.4 cells was “no or almost no influence”. In the case of IL-15: cytokine, the “MFI of cell surface HSP90 after cytokine treatment versus negative control” value in assay [3] is given as “no significant difference from the negative control”. For IFNγ: cytokine, the “expression of cell surface HSP90 after IFN treatment” value in assay [3] was “increased”. Regarding `C[C@@H]1C[C@H]2O[C@@H]2/C=C\C=C\C(=O)Cc2c(Cl)c(O)cc(O)c2C(=O)O1` [radicicol], the “influence on expression level” value with DC2.4 cells is on record as “no or almost no influence”. As to “OVA257-264: major OVA epitope peptide (SIINFEKL)”, the “cross-presentation potential of FcRγ KO mouse-derived dendritic cells compared with normal mouse-derived dendritic cells” value in the assay on OT-I CD8+ T cells [2] was “equivalent”.

The values above are taken from patent US20110280881A1, “NOVEL ANTI-HSP90 MONOCLONAL ANTIBODY” (RIKEN, priority 2010, published 2011).
